Measured values reported in article PMC12320831, “Synthesis and Biological Evaluation of New Chalcogen Semicarbazone (S, Se) and Their Azole Derivatives against Chagas Disease” (Journal of Medicinal Chemistry, 2024).
Values joined by “and” are separate entries in the source; they are usually repeats but may differ in a detail not shown here. Identical values can stand only once. “Also recorded” adds a separate entry of the source. Like-named read-outs stand apart in the source and are kept apart here.

Tests used:
[1] = DPPH radical scavenging (antioxidant) assay; details: for Percentage of inhibited DPPH (2 h): mean ± SEM
Method: The antioxidant capacity of the selected Se compound was tested using the DPPH assay described by Astrain-Redin. The compound was tested at three different concentrations (0.06, 0.03, and 0.015 mg/mL) and we used two positive controls: ascorbic acid (ASC) and trolox (TRO). A solution of DPPH (2,2-diphenyl-1-picrylhydrazyl) in methanol (0.04 mg/mL, preserved in the dark) was prepared and 100 μL of this stock solution was added to 100 μL of tested compound solution. The color change, from purple (radical) to yellow (reduced), was measured at 517 nm at different time points (0, 5, 15, 30, 60, 90, and 120 min). All measurements were carried out in triplicate and recorded on a BioTek PowerWave XS spectrophotometer (Biotek). Data were collected using BioTek Gen5Microplate reader and Imager software (Agilent, version 3.12). Results are expressed as a percentage of inhibited DPPH ± standard error of the mean (SEM), calculated using the following formula %inhibitedDPPH=Acontrol−Asample/Acontrol×100 where A control refers to the absorbance of the negative control and A sample refers to the absorbance of the tested compound.

[2] = Host cell cytotoxicity (C2C12 viability); type: cell-based, Mouse; details: mouse; for viability at 48 h, 10 µM: < 50% viability considered cytotoxic; for CC50 at 48 h: viability calculated at 10 μM
Summary of the method: (§1)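 Mouse C2C12 myoblasts co-seeded with CAI/72 trypomastigotes (10:1 parasite:cell) on compound, 48 h at 37 °C, 5% CO2. DAPI-stained fixed cells imaged; parasites per host cell normalized to 40 μM BNZ and DMSO. EC50 and C2C12 viability from dose-response curves, three biological replicates in triplicate.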

[3] = molecular target: T1, recombinant Cz (cruzain) (Trypanosoma cruzi, UniProt P25779); test: biochemical; details: for SICz: ratio between IC50 hCatL and IC50 Cz; for Cz inhibition (%): 10 µM; for inhibition at 10 µM: read-out: Cz inhibition (%), 10 µM
T1 construct: Cz was expressed and purified as described in da Silva et al; made in house
Summary of the method: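 Cruzain (1 nM) was preincubated 10 min with compound in 0.1 M sodium acetate pH 5.5, 1 mM DTT, 0.01% Triton X-100, then 2.5 μM Z-FR-AMC (final) was added. Fluorescence (360/460 nm) was read for 10 min at 25 °C and normalized to DMSO.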

[4] = test system: T. cruzi CAI/72 strain; test: Antiparasitic activity in C2C12 cells infected with T. cruzi CAI/72 (image-based assay); type: cell-based; details: Trypanosoma cruzi, read-out: Anti-Tc CAI/72 activity (%)
[5] = test system: T. cruzi CAI/72 strain; test: as above; type: cell-based
[6] = molecular target: T2, Recombinant human cathepsin L (hCatL) (Homo sapiens, UniProt P07711); test: Human cathepsin L inhibition assay (Z-FR-AMC substrate); type: biochemical
T2 construct: purchased R&D Systems 952-CY
Method: Compounds were screened at 10 μM. […] The experiment was performed for 30 min.
All experiments were accomplished in a 384-well black microplate, using a Synergy HTX (Biotek) plate reader at 25 °C with absorption/emission wavelengths of 360/460 nm. All assays were performed in triplicate wells and DMSO was used as a vehicle control. Enzymatic activity was measured and normalized to DMSO controls, and the inhibitor E-64 (10 μM) was used as a positive control for all assays. All experiments were performed in triplicates, with at least two independent assays (n = 6 data points). IC50 values were determined through nonlinear regression. Obtained data were treated and analyzed using GraphPad Prism 9.0 (GraphPad Software, La Jolla, California).

[7] = test system: Cz isolated and purified from Tulahuen 2 strain epimastigotes; design: method as in Jasinski et al.; details: different assay conditions and enzyme origin; ref Jasinski et al.; cited from earlier work
[8] = Compound stability (authors' observation); type: physicochemical; details: reason for discontinuation
[9] = test system: C2C12 cells; test: Host cell cytotoxicity (C2C12 viability); type: cell-based, Mouse; details: 10 µM; < 50% viability considered cytotoxic
Summary of the method: as §1

[10] = C2C12 myoblast cells infected with trypomastigotes
[11] = 10 µM, C2C12 infected cells, read-out: Anti-Tc CAI/72 activity (%)

T1 sequence (P25779 123-337 limits assumed): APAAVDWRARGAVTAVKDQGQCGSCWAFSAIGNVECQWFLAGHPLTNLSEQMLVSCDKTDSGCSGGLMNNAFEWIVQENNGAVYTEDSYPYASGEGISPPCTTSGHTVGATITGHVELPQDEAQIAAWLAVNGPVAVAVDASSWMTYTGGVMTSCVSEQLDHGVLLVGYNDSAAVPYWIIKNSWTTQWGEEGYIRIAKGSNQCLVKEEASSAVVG
T2 sequence (P07711 114-333): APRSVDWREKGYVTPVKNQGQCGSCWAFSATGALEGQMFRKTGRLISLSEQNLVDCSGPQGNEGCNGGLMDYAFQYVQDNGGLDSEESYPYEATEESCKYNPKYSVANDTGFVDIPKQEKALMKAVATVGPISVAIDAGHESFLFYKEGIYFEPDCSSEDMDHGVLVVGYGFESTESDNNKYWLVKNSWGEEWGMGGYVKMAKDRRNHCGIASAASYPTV

## O=C1O[C@H]([C@@H](O)CO)C(O)=C1O [ASC, ascorbic acid]
[1]; 0,03 mg/ml
  Percentage of inhibited DPPH (2 h): 80,33 ± 0,33%
[1]; 0,06 mg/ml
  Percentage of inhibited DPPH (2 h): 80,33 ± 0,67%
[1]; 0.015 mg/mL
  time to reach the plateau of the DPPH kinetic curve: 0 min
[1]; 0,015 mg/ml
  Percentage of inhibited DPPH (2 h): 65,33 ± 2,03%

## CN1CCN(C(=O)N[C@@H](Cc2ccccc2)C(=O)N[C@H](/C=C/S(=O)(=O)c2ccccc2)CCc2ccccc2)CC1 [Compound K777, reference compound]
[2]; [10]
  viability at 48 h, 10 µM: > 100%
  CC50 at 48 h: > 10000 nM
[3]
  SICz: 0.13
[4]
  inhibition at 3 µM: 61%

## C/C(=N\NC(N)=S)c1cccc(Cl)c1 [Compound S1i, (E)-2-(1-(3-Chlorophenyl)ethylidene)hydrazine-1-carbothioamide]
[5]; Trypanosoma cruzi, 10 µM, C2C12 infected cells, read-out: Anti-Tc CAI/72 activity (%)
  inhibition at 10 µM: 56.2%
[5]; Trypanosoma cruzi, intracellular amastigotes in C2C12 cells, 48 h, mean of three experiments in triplicate (n = 9) ± SD, read-out: EC50 Tc CAI/72
  EC50: ~10000 nM
[2]; [10]
  viability at 48 h, 10 µM: > 100%
  CC50 at 48 h: > 10000 nM
[3]
  Cz inhibition (%): 100.00%
  SICz: 35.76
  inhibition at 10 µM: > 85%
[3]; each of two biological replicates in triplicate, read-out: IC50 Cz, single biological replicate (Figure 3)
  IC50: 2 nM and 3 nM
[3]; mean of two experiments in triplicate (n = 6) ± SEM, read-out: IC50 Cz
  IC50: 2.5 ± 0.51 nM
[3]; listed as S 1i
  SICz: 36
[6]; 10 µM
  inhibition at 10 µM: 97.2%
[6]; each of two biological replicates in triplicate, read-out: IC50 hCatL, single biological replicate (Figure 4)
  IC50: 58 nM and 120 nM
[6]; mean of two experiments in triplicate (n = 6) ± SEM, read-out: IC50 hCatL
  IC50: 89.4 ± 31.4 nM
[7]
  IC50: 29900 nM

## C/C(=N\NC(N)=[Se])c1ccc(C#N)cc1 [Se1e, (E)-2-(1-(4-Cyanophenyl)ethylidene)hydrazine-1-carboselenoamide]
[5]; Trypanosoma cruzi, C2C12, read-out: Anti-Tc CAI/72 activity (%)
  inhibition at 10 µM: 57.1%
[2]
  viability at 48 h, 10 µM: > 100%
[3]
  inhibition at 10 µM: 104%
[8]
  stability of the compound: stability problems; also recorded: lack of stability

## Cc1c(C)c2c(c(C)c1O)CCC(C)(C(=O)O)O2 (stereo not shown) [TRO, trolox]
[1]; 0,03 mg/ml
  Percentage of inhibited DPPH (2 h): 79,33 ± 0,88%
[1]; 0,06 mg/ml
  Percentage of inhibited DPPH (2 h): 79,67 ± 0,67%
[1]; 0.015 mg/mL
  time to reach the plateau of the DPPH kinetic curve: 5 min
[1]; 0.015 mg/mL, kinetic curve over 2 h
  percentage of activity in the DPPH kinetic curve: 80%
[1]; 0,015 mg/ml
  Percentage of inhibited DPPH (2 h): 79,33 ± 1,33%

## (E)-2-(1-(4-Cyanophenyl)ethylidene)hydrazine-1-carbothioamide [Compound S1e]
[5]; [11]
  inhibition: 31.6%
[9]
  C2C12 viability (%): >100%
[3]
  Cz inhibition (%): 98.77%

## (E)-2-(1-((3r,5r,7r)-Adamantan-1-yl)ethylidene)hydrazine-1-carbothioamide [Compound S1q]
[5]; [11]
  inhibition: 38.7%
[9]
  C2C12 viability (%): >100%
[3]
  Cz inhibition (%): 5.06%

## (E)-2-(1-(Thiophen-3-yl)ethylidene)hydrazine-1-carbothioamide [Compound S1l]
[5]; [11]
  inhibition: 10.9%
[9]
  C2C12 viability (%): >100%
[3]
  Cz inhibition (%): 62.83%
